From patent US20240167037A1, “CANCER THERAPY” (NATIONAL UNIVERSITY CORPORATION KOBE UNIVERSITY, priority 2021, published 2024)

Tests used:
Assay type in all cases: cell-based, human
MDA-MB-231 cells [1] = test: In vitro invasion assay (BioCoat Matrigel Invasion Chambers); conditions: MβCD 4 mM, calyculin A 0.5 nM; drugs added in both sides; 24 h; FIG. 10b
Protocol: In vitro invasion and migration assays. For invasion and migration assays, we used BioCoat Matrigel Invasion Chambers (Corning) and 8.0 μm PET trans-migration inserts (Corning), respectively. In the invasion assay, 1×10^5 cells were suspended in serum-free medium and seeded on top of the chamber's membrane, in which medium containing serum was placed at the bottom. For MβCD or calyculin A treatment, drugs were added in both sides. Low-invasive epithelial (MCF10A, AU565, and MCF7) cells and MDA-MB-231 cells were incubated for 36 h and 24 h, respectively, and then fixed in 4% formaldehyde. Invaded cells were imaged using a BZ-X700 microscope (Keyence) with 10× magnification and counted. In the migration assay, 5×10^4 cells were seeded on top of the PET membrane, incubated for 24 h, and analyzed as described for the invasion assay. For the quantification of invasive structures grown in 3D on-top culture (FIGS. 5a and b), the elongated mesenchymal-like and rounded morphologies were defined as invasive and non-invasive phenotypes, respectively, and quantified.

MDA-MB-231 cells [2] = test: Tether force measurement with optical tweezers and estimation of PM tension; conditions: MβCD 4 mM vs mock (FIG. 10c), MA-ezrin expression vs parental (FIG. 4a)
Protocol: Tether force measurement with optical tweezers and the estimation of PM tension. Tether force measurements were performed with an optical tweezers system (NanoTracker™ 2, JPK Instruments) equipped with an infrared (IR) laser source (3 W, 1064 nm) on an Olympus IX-73 inverted microscope with a 60×(numerical aperture=1.2) water immersion objective (Olympus). Silica beads (1.5 μm diameter, Polysciences) were incubated with concanavalin A (Sigma-Aldrich) at 1 mg/ml for 1 h. Cells were plated onto glass-bottom dishes (WPI). Coated beads were added to the cell culture medium supplemented with 25 mM HEPES (pH 7.5), and experiments were performed at 37° C. Tether force (F) can be calculated using Hooke's law: F=kΔx, where k is the stiffness of the trap and Δx is the displacement of the bead from the trap center. […] The displacement of the bead in the trap center (Δx) was determined by a quadrant photodiode detector with high precision (the resolution less than 1 nm). […] To compare PM tension between non-motile epithelial cells and malignant cells, we measured the tethering force on the lateral sides of cells. […]
PM tension can be estimated with the following formula: T=Ftether^2/8Bπ^2, where T is the apparent plasma membrane tension (PM tension), Ftether is the tether force measured by optical tweezers, and B is the bending stiffness of the membrane. […]

[3] = test system: GFP-FBP17 in MDA-MB-231 cells; test: Confocal quantification of GFP-FBP17 puncta at the plasma membrane; conditions: FIG. 5g, 11c, 11e
Protocol: Confocal microscopy, live-cell imaging, and image analysis. For immunofluorescence analysis, cells were fixed with 4% formaldehyde in phosphate-buffered saline (PBS) for 10 min and permeabilized with 0.2% Triton X-100 for 10 min in PBS. Cells were blocked with 5% goat serum (Sigma-Aldrich) in PBS for 1 h and were incubated with primary antibodies for at least 3 h. Then, cells were incubated with secondary antibodies for 1 h. For membrane visualization, Alexa Fluor™ 350 conjugated wheat germ agglutinin (WGA) (Thermo Scientific) was incubated with fixed cells for 30 min before permeabilization. For visualization of F-actin, Alexa Fluor™ 568 Phalloidin (Thermo Scientific) was incubated with fixed cells for 30 min. Fluorescence images were captured using a confocal microscopy system (FluoView 1000-D; Olympus) equipped with 405-, 473-, and 568-nm diode lasers through an objective lens (60× oil immersion objective, NA=1.35). […] The aspect ratio was determined as a ratio of the major cell axis length to minor cell axis length, which was calculated automatically by Image J. We observed that elongated cells typically have an aspect ratio of 5-8, whereas that of amoeboid cells is 2-3. […] The mean intensity of pERM or F-actin all along the membrane regions was then calculated and divided by their mean intensities throughout the cytosol (avoiding the nucleus). […]

Compound	invasive ability (drug-treated cells that invaded through Matrigel) (MDA-MB-231 cells [1])	PM tension (estimated from tether force) (MDA-MB-231 cells [2])	recruitment / accumulation of GFP-FBP17 at the PM [3]
COC[C@@H]([C@H](O)[C@H](O)C(=O)NCC[C@H](C)c1nc(/C=C/C[C@@H]2O[C@]3(C[C@@H](O)[C@@H]2C)O[C@H]([C@H](C[C@H](O)[C@H](C)[C@H](O)[C@H](C)/C=C(C)/C(C)=C/C=C/C(C)=C\C#N)OC)[C@H](OP(=O)(O)O)C3(C)C)co1)N(C)C [calyculin A]	no effect		
methyl-β-cyclodextrin [MβCD]	significantly reduced	increases	sufficient to prevent
